Measurements taken from the METLIN SMRT retention time set (Domingo-Almenara et al. 2019).

Assay: gradient 5% acetonitrile 3 min, to 50% in 2 min, to 85% in 15 min, held 3 min, 100 µL/min
Settings: column: Zorbax Extend-C18 2.1 x 50 mm; eluents: water / acetonitrile, 0.1% formic acid
Procedure, shortened: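 Using water and acetonitrile that each contained 0.1% formic acid, mixtures of ~100 pure standards were separated at 100 μL/min on a Zorbax Extend-C18 column (2.1 × 50 mm, 1.8 μm). The HPLC fed a quadrupole time-of-flight mass spectrometer working in positive and negative ionization mode, with dead and dwell volumes of 40 μL and 900 μL. Data were acquired over 3 months. Retention time was read from computationally picked adduct peaks after manual inspection of each.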

RP-LC retention time	Compound
851 s	Cc1ccc(CNC(=O)C2CCCN(c3ncc(-c4cccc(F)c4)cn3)C2)o1 (centres undefined)
1050 s	Cc1nc(C2(C)CCN(S(=O)(=O)c3ccc(C(C)C)cc3)CC2)no1
1070 s	CNC(=O)c1noc([C@@H]2CC(F)(F)CN2Cc2ccc(C)o2)n1
739 s	COC(=O)c1cc(OCC(=O)NC2CCCC2)c2cc(OC)ccc2n1
921 s	O=C(N[C@H]1C[C@@H]2C[C@H]1CN2S(=O)(=O)c1ccccc1C(F)(F)F)c1ccccc1
574 s	COc1ccc(CCNC(=O)Cn2cnc(C)cc2=O)cc1OC
654 s	CN1CCN(C(=O)c2nnc(-c3ccc(S(=O)(=O)N4CCCCC4)cc3)o2)CC1
822 s	CC(C)C[C@@H](C(=O)N[C@H](C(=O)OC1CCCC1)c1ccccc1)[C@H](O)C(=O)NO
1080 s	O=C(c1nnc(-c2ccc(S(=O)(=O)N3CCOCC3)cc2)o1)N1CCC(Cc2ccccc2)CC1
1040 s	O=C(Cn1cnc2onc(-c3ccc(F)cc3)c2c1=O)N1CCCc2ccccc21
711 s	Cc1ccc(-c2nc3cnccn3c2Nc2cccc(C(=O)O)c2)cc1
558 s	O=C(Nc1ccccc1C(F)(F)F)N1CCc2nc[nH]c2C1
613 s	CCN(CCN(C)C)c1ccc(C(=O)O)cc1NS(=O)(=O)c1ccc(F)cc1
667 s	COc1ccc(Cl)cc1NC(=O)N1CCN(c2ccc3nncn3n2)CC1
588 s	Cc1c(-c2ccnc(N3CCN(Cc4ccccc4)CC3)n2)cnc2ncnn12
578 s	CCN1CCN(C(=O)C2Cc3cc(S(=O)(=O)N4CCOCC4)ccc3N2C(C)=O)CC1 (centres undefined)
789 s	Cc1cc(-c2nnc(NC(=O)c3cc4cc([N+](=O)[O-])ccc4s3)o2)n(C)n1
883 s	Cc1[nH]c(C(=O)N2CCN(c3cccc(Cl)c3)CC2)c(C)c1S(=O)(=O)N1CCOCC1
784 s	COc1ccc(C(=O)N2CCN(c3ccc(=O)n(-c4cccc(Cl)c4)n3)CC2)cc1OC
645 s	Cc1ccc(CC(=O)N(CCS(=O)(=O)N2CCNCC2)CC2CCCO2)cc1 (centres undefined)
845 s	O=C(COc1ccc2c(-c3ccccc3)cc(=O)oc2c1)N1CCC2(O)CCCCC2C1 (centres undefined)
910 s	CC(C)Cc1cc(-c2nn3c(Cc4ccccc4)nnc3s2)n[nH]1
858 s	O=C(C1=CN(c2cccc(C(F)(F)F)c2)c2cc(F)ccc2S1(=O)=O)N1CCOCC1

RP-LC retention time	Compound
1060 s	O=C1CCCc2nc(N3CCN(c4ccccc4F)CC3)ncc21
709 s	CN(C)c1cccc(C(=O)NCc2nn(C)c3ccccc23)c1
674 s	O=C(NCc1ccccn1)c1csc(Nc2ccc(OC(F)(F)F)cc2)n1
653 s	N#Cc1cccc(NC(=O)COc2ccc(-c3nnc4n3CCCC4)cc2)c1
882 s	CCN(C(=O)C(=O)c1c[nH]c2ccccc12)c1cccc(Cl)c1
1110 s	CCCCOc1ccc(C(=O)N2CCCC2c2nc(-c3ccc(OC)c(OC)c3)no2)cc1 (centres undefined)
644 s	CC(C)CNc1ccc2nncn2n1
986 s	COc1ccccc1C(=O)NC1(C(F)(F)F)C(=O)N(CC2CCCO2)C2=C1C(=O)CC(C)(C)C2 (centres undefined)
729 s	COCCc1noc(-c2cnc3nc(C)ccc3c2Nc2cccc(F)c2)n1
864 s	COC(=O)c1c(NC(=O)CN2C(=O)CCC2=O)sc(Cc2ccc3c(c2)OCO3)c1C
1060 s	O=S(=O)(Cc1ccccc1)N1CCC(c2noc(COCc3ccccc3)n2)CC1
902 s	O=C(NCC1CCCO1)c1csc(N2CCN(c3ccc(F)cc3)CC2)n1 (centres undefined)
1230 s	CCCn1nnc(NCc2ccc(-c3ccc(Br)cc3Cl)o2)n1
735 s	CN1c2cc(F)ccc2C(=O)NC12CCN(C(=O)Nc1ccccc1F)CC2
630 s	COC(=O)c1ccc(NC(=O)CN2CCc3[nH]c4c(F)c(Cl)ccc4c(=O)c3C2)cc1
784 s	Cn1c(=O)sc2cc(S(=O)(=O)N3CCC(C(=O)NCc4ccc5c(c4)OCO5)CC3)ccc21
646 s	Cc1ccc(NC(=O)CSc2nc(=O)n(CCN(C)C)c3c2CCC3)cc1F
1320 s	Cc1ccc(-c2cc3c(=O)n(Cc4nc(-c5cccc(Br)c5)no4)ncn3n2)c(C)c1
1080 s	Cc1ccc2c(c1)N(Cc1ccccc1)N=C(C(=O)N1CCC(C)CC1)S2(=O)=O
532 s	COCc1nc2ccccc2n1CC(=O)NCC1CCCO1 (centres undefined)
583 s	CN1CCC(OC2CCN(C(=O)c3ccc(F)cc3Cl)CC2)CC1
1010 s	CCOc1ccc(N2C(=O)C3N=NN(Cc4nc(-c5ccccc5Br)no4)C3C2=O)cc1 (centres undefined)
570 s	O=C(NCC(c1ccsc1)N1CCCCCC1)C(=O)Nc1ccc2c(c1)OCCO2 (centres undefined)

RP-LC retention time	Compound
903 s	CCn1c(=O)oc2cc(-c3noc(-c4ccnn4C)n3)ccc21
601 s	CN1CCN(CCNC(=O)C2CCc3sc(C(=O)N4CCCCCC4)cc3C2)CC1 (centres undefined)
1100 s	CCOC(=O)c1sc(NC(=O)c2ccccc2F)nc1-c1ccccc1
703 s	CC(C)Cc1ccc(S(=O)(=O)N(CC(=O)N2CCNCC2)CC2CCCO2)cc1 (centres undefined)
746 s	Cn1c(Cn2c(=O)sc3ccccc32)nnc1SCC(=O)N1CCc2ccccc21
615 s	O=C(c1ccsc1)N1CCN(c2nnc3ccc(Cl)cn23)CC1
859 s	O=C(Nc1cnc(N2CCCCCC2)nc1)c1cccs1
754 s	Cc1ccc(-c2ncc(C(=O)N(C)C)c(-c3ccncc3)n2)cc1
985 s	O=C(Nc1cc(F)ccc1F)N1CCc2nc(-c3ccc(F)cc3)ncc2C1
649 s	CCn1c(=O)c(NCc2cccc(Cl)c2)nc2ccncc21
588 s	O=C(C1CCCN(c2nn3c(=O)c4c(nc3s2)CCCC4)C1)N1CCN(c2ccccn2)CC1 (centres undefined)
566 s	Cn1c(=O)n(C)c2cc(S(=O)(=O)NCC(=O)O)ccc21
754 s	COC(=O)C1=CN(c2cccc(C#N)c2)c2ccccc2S1(=O)=O
616 s	CN(Cc1ccc(OC(F)(F)F)cc1)C1CCc2nnc(C3CCOCC3)n2CC1 (centres undefined)
873 s	CCCc1noc(-c2ccnc(-n3cnc(C(=O)N4CCSCC4)c3)c2)n1
806 s	Cc1ccc(C(=O)N2CCC(n3c(-c4ccoc4)nc4cccnc43)C2)cc1C (centres undefined)
1020 s	CCCCS(=O)(=O)c1cc2c(cc1NC(=O)c1ccc(Br)cc1)n(C)c(=O)n2C
908 s	O=C(C1CC1)N1c2ccccc2CC1c1nc(C2CC2)no1 (centres undefined)
821 s	CC1(C)SC2C(NC(=O)COc3ccccc3)C(=O)N2C1C(=O)O (centres undefined)
713 s	Cc1noc(C)c1CNC(=O)Cc1ccc(F)cc1
652 s	c1ccc(OCc2nc(-c3ccc4c(c3)ncn4CCN3CCCCC3)no2)cc1
824 s	Cc1cc(C2CCCN2C(=O)Cc2ccc(Cl)cc2)no1 (centres undefined)
637 s	CN1C(=O)CCCCC1C(=O)NCc1cccs1 (centres undefined)

RP-LC retention time	Compound
829 s	Cc1nc(-c2cc(S(=O)(=O)NCC(=O)N3CCN(c4cccc(Cl)c4)CC3)c(C)s2)no1
832 s	Cc1nc(Nc2ccc(F)cn2)sc1C(=O)NCc1ccc(F)cc1
697 s	COc1ccc(CCc2nc3nccc(-c4ccncc4)n3n2)cc1
708 s	Cc1cc(Cl)ccc1S(=O)(=O)NC1CCc2nn(C)c(=O)n2CC1 (centres undefined)
613 s	CCc1nnc2nc(N3CCN(C(=O)Cc4cccs4)CC3)cc(C)n12
762 s	O=C(c1ccsc1)N1CCC(OCc2nc(C3CC3)no2)CC1
953 s	O=C(c1ccc([N+](=O)[O-])cc1)N(C(=O)N1CCCCC1)c1cccc(Cl)c1
620 s	O=C(c1ccccn1)N1CCCn2cc(-c3ccccc3)nc21
1350 s	CCCCCn1c(=O)c2ccccc2n(Cc2nc(-c3ccc(C)cc3)no2)c1=O
749 s	O=C(Cc1ccc(Cl)cc1)NC1CCN(c2cc(-c3cccs3)[nH]n2)C1 (centres undefined)
776 s	Cc1ccc(C(=O)N2CCC3(CC2)NC(=O)c2cc(F)ccc2N3C)cc1
1110 s	Cc1cc2oc(=O)c(C)c(C)c2c2c1C(=O)CC(c1ccc3c(c1)OCO3)O2 (centres undefined)
867 s	O=C(NCc1cccc(Br)c1)c1cn2nc(Cl)ccc2n1
606 s	CC(C)c1cc(N2CCN(C(=O)c3ccc(N(C)C)cc3)CC2)nc2nncn12
639 s	Cc1ccc(CNC(=O)C2(C)Cn3nc(C(=O)NCCN(C)C)cc3C(=O)N2C)cc1 (centres undefined)
606 s	COc1ccccc1N1CCN(Cc2nc3nc(C)cc(N(C)C)n3n2)CC1
597 s	Cc1csc(C(=O)Nc2nnc(SCC(=O)Nc3cccnc3)s2)c1
687 s	Cc1ccc(F)c(NS(=O)(=O)c2cc3n(c2)CCCN(C)C3=O)c1
760 s	COc1ccc(C(=O)Nc2cc(-c3cccnc3)no2)c(C)c1
684 s	CSc1ccc(NC(=O)c2cn3c(n2)COCC3)cc1
